Source: patent US10947574B2, “Method for producing fermented carotenoid using carotenoid-producing bacteria obtained by using cobalt-containing culturing medium” (ENEOS CORPORATION, priority 2015, dated 2021)

Key:
Type in all cases: cell-based
[1] = test system: Paracoccus zeaxanthinifaciens strain ATCC 21588; experiment: Example 7: cobalt concentration series, growth (OD610) and carotenoid levels (HPLC)
Method: (§1) In the following examples, carotenoids were quantified by high performance liquid chromatography (HPLC) as follows.
(§2) Two columns of Inertsil SIL-100A, 5 μm (ϕ4.6 mm×250 mm) (GL Sciences Inc., Japan) were connected together for use as a column. For elution, a mixed solution of n-hexane, tetrahydrofuran and methanol (40:20:1) serving as a mobile phase was passed through the column at a flow rate of 1.0 mL per minute at a constant temperature around room temperature. For measurement, samples were each dissolved in tetrahydrofuran and diluted 100-fold with the mobile phase, and 20 μL aliquots of the resulting dilutions were injected into the column. The column eluates were detected at a wavelength of 470 nm. As a standard for quantification, astaxanthin (SIGMA, Cat. No. A9335) was used. The astaxanthin concentration of the standard solution was determined using the following equation after measuring the absorbance (A) of the standard solution at 477 nm and the area percentage % (B) of the astaxanthin peak in HPLC analysis under the above conditions.
(§3) Subsequently, a medium of the following composition (glucose 30 g/L, filtered corn steep liquor 30 g/L, ammonium sulfate 1.5 g/L, potassium dihydrogen phosphate 1.5 g/L, disodium hydrogen phosphate dodecahydrate 3.8 g/L, calcium chloride dihydrate 5.0 g/L, magnesium sulfate heptahydrate 0.7 g/L, iron sulfate heptahydrate 1.0 g/L, silicon-based defoaming agent 0.2 g/L) was dispensed in 7.2 ml volumes into cotton-plugged test tubes having an inner diameter of 18 mm to prepare 9 test tubes containing a test tube medium for production. The ingredients used to prepare the test tube medium for production were obtained from lots where microbial cells had been confirmed not to grow well.
The resulting culture solution was then inoculated in 0.05 ml volumes into the 9 types of test tube media for production having different cobalt concentrations, and cultured under shaking at 28° C. for 4 days at 300 spm.
(§4) After being cultured for 4 days, the culture solutions were each measured for microbial cell growth by OD610 and measure for carotenoid levels by HPLC.

[2] = test system: Paracoccus carotinifaciens strain E-396 (FERM BP-4283)
Method: as §3, with “13” for “9”
The 12 trace metals indicated in Table 1 were separately prepared in 0.8 ml volumes to have their final concentrations indicated in Table 1 and then added to the above 12 test tubes for production, respectively. The remaining one test tube was supplemented with 0.8 ml of ion exchanged water.
The resulting culture solution was then inoculated in 0.05 ml volumes into the 13 types of test tube media for production and cultured under shaking at 28° C. for 4 days at 300 spm.

[3] = test system: Paracoccus sp. strain A-581-1 (FERM BP-4671); experiment: Example 6: cobalt concentration series, growth (OD610) and carotenoid levels (HPLC)
Method: as §1, §2
The ingredients used to prepare the test tube medium for seed culture were obtained from lots where microbial cells had been confirmed to grow well.
The ingredients used to prepare the test tube medium for production were obtained from lots where microbial cells had been confirmed not to grow well.
The resulting culture solution was then inoculated in 0.05 ml volumes into the 7 types of test tube media for production having different cobalt concentrations, and cultured under shaking at 29° C. for 4 days at 300 spm.
as §4

[4] = cobalt added 0.00042 μmol/L, total 0.0024 μmol/L
[5] = cobalt added 0.0042 μmol/L, total 0.0062 μmol/L
[6] = cobalt added 0.021 μmol/L, total 0.023 μmol/L
[7] = cobalt added 0.042 μmol/L, total 0.044 μmol/L
[8] = cobalt added 0.42 μmol/L, total 0.42 μmol/L
[9] = cobalt added 4.2 μmol/L, total 4.2 μmol/L
[10] = cobalt added 21 μmol/L, total 21 μmol/L
[11] = cobalt added 42 μmol/L, total 42 μmol/L

O.O.O.O.O.O.[Cl-].[Cl-].[Co+2] [Cobalt chloride hexahydrate]
Carotenoid: Zeaxanthin [1, 4]: 0.6 mg/L
Carotenoid: β-Carotene [1, 4]: 0.0 mg/L
Carotenoid: β-Cryptoxanthin [1, 4]: 0.0 mg/L
OD610 [1, 4]: 2
Total carotenoid [1, 4]: 0.6 mg/L
Carotenoid: Zeaxanthin [1, 5]: 2.0 mg/L
Carotenoid: β-Carotene [1, 5]: 0.2 mg/L
Carotenoid: β-Cryptoxanthin [1, 5]: 0.1 mg/L
OD610 [1, 5]: 6
Total carotenoid [1, 5]: 2.3 mg/L
Carotenoid: Zeaxanthin [1, 6]: 10.6 mg/L
Carotenoid: β-Carotene [1, 6]: 0.7 mg/L
Carotenoid: β-Cryptoxanthin [1, 6]: 0.3 mg/L
OD610 [1, 6]: 25
Total carotenoid [1, 6]: 11.6 mg/L
Carotenoid: Zeaxanthin [1, 7]: 13.6 mg/L
Carotenoid: β-Carotene [1, 7]: 0.8 mg/L
Carotenoid: β-Cryptoxanthin [1, 7]: 0.3 mg/L
OD610 [1, 7]: 29
Total carotenoid [1, 7]: 14.7 mg/L
Carotenoid: Zeaxanthin [1, 8]: 13.4 mg/L
Carotenoid: β-Carotene [1, 8]: 0.7 mg/L
Carotenoid: β-Cryptoxanthin [1, 8]: 0.3 mg/L
OD610 [1, 8]: 29
Total carotenoid [1, 8]: 14.4 mg/L
Carotenoid: Zeaxanthin [1, 9]: 12.9 mg/L
Carotenoid: β-Carotene [1, 9]: 0.7 mg/L
Carotenoid: β-Cryptoxanthin [1, 9]: 0.3 mg/L
OD610 [1, 9]: 28
Total carotenoid [1, 9]: 13.9 mg/L
Carotenoid: Zeaxanthin [1, 10]: 10.8 mg/L
Carotenoid: β-Carotene [1, 10]: 0.6 mg/L
Carotenoid: β-Cryptoxanthin [1, 10]: 0.4 mg/L
OD610 [1, 10]: 24
Total carotenoid [1, 10]: 11.8 mg/L
Carotenoid: Zeaxanthin [1, 11]: 6.4 mg/L
Carotenoid: β-Carotene [1, 11]: 0.3 mg/L
Carotenoid: β-Cryptoxanthin [1, 11]: 0.3 mg/L
OD610 [1, 11]: 18
Total carotenoid [1, 11]: 7.0 mg/L
microbial cell growth (by OD610), in words [2]: good growth
OD610 ([2]; each trace metal added singly at final concentration of Table 1, shaking at 28° C. for 4 days): 32
Astaxanthin [3, 4]: 0.3 mg/L
OD610 [3, 4]: 3
Total carotenoid [3, 4]: 0.9 mg/L
Astaxanthin [3, 5]: 0.5 mg/L
OD610 [3, 5]: 5
Total carotenoid [3, 5]: 1.7 mg/L
Astaxanthin [3, 7]: 2.0 mg/L
OD610 [3, 7]: 21
Total carotenoid [3, 7]: 5.3 mg/L
Astaxanthin [3, 8]: 2.1 mg/L
OD610 [3, 8]: 22
Total carotenoid [3, 8]: 5.6 mg/L
Astaxanthin [3, 9]: 1.2 mg/L
OD610 [3, 9]: 21
Total carotenoid [3, 9]: 5.5 mg/L
Astaxanthin [3, 11]: 0.0 mg/L
OD610 [3, 11]: 2
Total carotenoid [3, 11]: 0.2 mg/L
